Assay [1] has as its target GTPγS-bound human HRasG12V / human c-Raf-1 Ras binding domain (RBD) (Homo sapiens (Human), UniProt P01112, G12V). In words: Ras-Raf binding inhibition ELISA. The following applies: for IC50: anti-HRas antibody C-20, read-out: ELISA IC50 (μM): 1st Ab_C-20. The method, boiled down:
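GST-c-Raf-1 RBD (aa 50-131) immobilized on glutathione plates, then GTPγS-loaded full-length HRasG12V added with compound (final 10% DMSO), 1 h at 30 °C, pH 7.4 Tris buffer. Bound Ras detected by anti-HRas antibody (C-20 or 259) and HRP secondary, TMB read at OD450; IC50 from inhibition.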
(In general: ELISA stands for enzyme-linked immunosorbent assay.)

The test system of assay [2] is acute lymphoblastic leukemia cells CCRF-CEM (K-RasG12D). In words: Cell growth inhibition, suspension cells CCRF-CEM. The format is cell-based. The settings on record: Homo sapiens, 72 hours; for inhibition at 1 µM: read-out: CCRF-CEM (KRasG12D) % inhibition at 1 μM; for inhibition at 3.2 µM: read-out: CCRF-CEM (KRasG12D) % inhibition at 3.2 μM (***). On the procedure:
(§1) The cell growth inhibitory activity of the compound of the present invention on human culture cells having active-type mutation in Ras was evaluated by the below-mentioned method using suspension cancer cells {acute lymphoblastic leukemia cells CCRF-CEM (K-RasG12D), promyelocytic leukemia cells HL60 (N-RasQ61L), acute lymphoblastic leukemia cells MOLT4 (N-RasG12C), and small cell lung cancer cells SHP77 (K-RasG12V)} and adherent cancer cells {large bowel cancer cells SW480 (K-RasG12V) and large bowel cancer cell SW620 (K-RasG12V)}.
(§2) (Case of suspension cells) The cells suspended in a medium containing 0.5% (v/v) fetal bovine serum (FBS) and each compound solution (final DMSO concentration: 1%) were seeded on a 96-well plate (2 to 4×10^4 cells/well), and the resulting mixture was then cultured at 37° C. in the presence of 5% CO2 for 72 hours.
(§3) Thereafter, the number of viable cells was measured using Cell Counting Reagent (Nacalai Tesque) in accordance with the manufacturer's instructions. Inhibition by the test compound was determined according to the following equation: […]

For assay [3], the system named is acute lymphoblastic leukemia cells MOLT4 (N-RasG12C). As to the kind of experiment: Cell growth inhibition, suspension cells MOLT4. The format is cell-based. The settings on record: Homo sapiens, MOLT-4, 72 hours; for inhibition at 10 µM: read-out: MOLT-4 (NRasG12C) % inhibition at 10 μM (**); for inhibition at 3.2 µM: read-out: MOLT-4 (NRasG12C) % inhibition at 3.2 μM (***). On the procedure: as §1, §2, §3

The subject of assay [4] is promyelocytic leukemia cells HL60 (N-RasQ61L). As to the kind of experiment: Cell growth inhibition, suspension cells HL60. The settings on record: Homo sapiens, HL-60, 72 hours; for inhibition at 3.2 µM: read-out: HL-60 (NRasQ61L) % inhibition at 3.2 μM (****). The format is cell-based. The method in brief:
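Suspension cells, 2 to 4×10^4 per well, cultured with compound in medium with 0.5% FBS (1% DMSO final) for 72 h at 37° C, 5% CO2. Viable cells counted with Cell Counting Reagent; inhibition calculated relative to controls.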

The test system of assay [5] is large bowel cancer cell SW620 (K-RasG12V). In words: Cell growth inhibition, adherent cells SW620. The format is cell-based. The settings on record: Homo sapiens, SW-620, 72 hours; for inhibition at 3.2 µM: read-out: SW620 (KRasG12V) % inhibition at 3.2 μM (***). The method, boiled down:
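Adherent cells, 1 to 2×10^4 per well, grown overnight in 10% FBS, then exposed to compound in low-serum medium […] for 72 h at 37° C. Viable cells counted with Cell Counting Reagent; inhibition calculated relative to controls.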

In assay [6] the test system is small cell lung cancer cells SHP77 (K-RasG12V). In words: Cell growth inhibition, suspension cells SHP77. The format is cell-based. The settings on record: Homo sapiens, 72 hours; for inhibition at 3.2 µM: read-out: SHP77 (KRasG12V) % inhibition at 3.2 μM (**). On the procedure: as §1, §2, §3

The structures appear in SMILES notation.

In general, IC50 refers to the concentration needed to halve the response being measured. Usually inhibition stands for the change of the read-out against control, counted positive when it falls.

Chain of GTPγS-bound human HRasG12V / human c-Raf-1 Ras binding domain (RBD) (P01112 whole entry G12V, the tested form may be a part): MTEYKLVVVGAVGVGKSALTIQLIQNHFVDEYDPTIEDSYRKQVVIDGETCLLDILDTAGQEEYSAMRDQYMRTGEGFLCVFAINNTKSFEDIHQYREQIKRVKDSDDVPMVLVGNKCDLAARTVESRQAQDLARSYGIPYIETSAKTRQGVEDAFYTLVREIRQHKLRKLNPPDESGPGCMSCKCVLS

`CC(=O)N1C(=Cc2ccc(OCC(=O)N3CCOCC3)c(F)c2)C(=O)c2ccccc21` (racemic) [Example 16, 1-acetyl-2-(3-fluoro-4-(2-morpholino-2-oxoethoxy)-benzylidene)-indolin-3-one]: the IC50 in assay [1] was found to be 7.6 µM. Further, the inhibition at 1 µM in assay [2] came to 56%. Further, the inhibition at 10 µM in assay [3] worked out at 100%.
For the compound `CC(=O)N1C(=Cc2cc(F)c(OCC(=O)N3CCOCC3)c(F)c2)C(=O)c2ccccc21` (racemic) [Example 19, 1-acetyl-2-(3,5-difluoro-4-(2-morpholino-2-oxoethoxy)-benzylidene)-indolin-3-one], the IC50 in assay [1] amounted to 5.8 µM. The inhibition at 1 µM in assay [2] was found to be 83%. Besides, the inhibition at 10 µM in assay [3] came out at 100%.
As to `COCCOc1ccc(/C=C2/C(=O)c3ccccc3N2C(C)=O)cc1OC` [Example 11, 1-acetyl-2-(3-methoxy-4-(2-methoxyethoxy)-benzylidene)-indolin-3-one], the values for the inhibition at 10 µM in assay [1] and in assay [3] were 54% and 100%, respectively. For the same compound, the inhibition at 1 µM in assay [2] was 55%.
For `CCOc1cc(/C=C2/C(=O)c3ccccc3N2C(C)=O)ccc1OCC(N)=O` [Example 13, 2-(4-((1-acetyl-3-oxoindolin-2-ylidene)methyl)-2-ethoxyphenoxy)-acetamide], the inhibition at 1 µM in assay [2] came to 33%. The inhibition at 10 µM in assay [3] came to 100%.
On to `COc1cc(/C=C2/C(=O)c3ccccc3N2C(C)=O)ccc1OS(C)(=O)=O` [Example 21, 4-((1-acetyl-3-oxoindolin-2-ylidene)methyl)-2-methoxyphenyl methanesulfonate], for which the inhibition at 1 µM in assay [2] turned out to be 97%; in assay [4] (1 μM, read-out: HL-60 (NRasQ61L) % inhibition at 1 μM), 43%. In assay [3] (3.3 μM (*), read-out: MOLT-4 (NRasG12C) % inhibition at 3.3 μM (*)), the inhibition at 3.3 µM turned out to be 100%.
In the case of `COc1cc(/C=C2/C(=O)c3ccccc3N2C(C)=O)ccc1OCS(C)(=O)=O` [Example 24, 1-acetyl-2-(3-methoxy-4-((methylsulfon-yl)methoxy)-benzylidene)-indolin-3-one], the inhibition at 1 µM in assay [2] is 88%; in assay [3] (1 μM, read-out: MOLT-4 (NRasG12C) % inhibition at 1 μM) it was 54%.
For `CC(=O)N1/C(=C\c2cc(CN3CCOCC3)c3ccccc3n2)C(=O)c2ccccc21` [Example 181, (Z)-1-acetyl-2-((4-(morpholinometh-yl)quinolin-2-yl)-methylene)indolin-3-one], in assay [1], the IC50 turned out to be 2.4 µM. Also, the inhibition at 3.2 µM in assay [2] stood at 98.2%; in assay [4], 96.7%; in assay [3] it was 96.3%; in assay [5], 74.3%.
As to `CC(=O)N1CCc2cc(-c3cc(/C=C4/C(=O)c5ccccc5N4C(C)=O)nc4ccccc34)ccc2C1` [Example 187, (Z)-1-acetyl-2-((4-(2-acetyl-1,2,3,4-tetra-hydroisoquinolin-6-yl)-quinolin-2-yl)methylene)-indolin-3-one], the inhibition at 1 µM in assay [1] came to 66.7%; in assay [6] (1 μM, read-out: SHP77 (KRasG12V) % inhibition at 1 μM), 66.8%; in assay [5] (1 μM, read-out: SW620 (KRasG12V) % inhibition at 1 μM), 39.3%.
The compound `CC(=O)N1CCc2c(cccc2-c2cc(/C=C3/C(=O)c4ccccc4N3C(C)=O)nc3ccccc23)C1` [Example 193, (Z)-1-acetyl-2-((4-(2-acetyl-1,2,3,4-tetra-hydroisoquinolin-5-yl)quinolin-2-yl)methylene)-indolin-3-one] registered an inhibition at 1 µM in assay [1] of 60.4%. Moreover, the results for the inhibition at 3.2 µM in assay [6] and in assay [5] were 98.1% and 96.1%, respectively.
Regarding `CC(=O)N1/C(=C\c2ccc3c(-c4cccc5ccccc45)c(C(=O)N4CCOCC4)ccc3n2)C(=O)c2ccccc21` [Example 195, (Z)-1-acetyl-2-((6-(morpholine-4-carbonyl)-5-(naphthalen-1-yl)-quinolin-2-yl)-methylene)indolin-3-one], in assay [1], the inhibition at 1 µM amounted to 55.7% and the IC50 is 0.9 µM. Also, in assay [6], the inhibition at 3.2 µM was 96.4%. For the same compound, the inhibition at 3.2 µM in assay [5] was 95.4%.
As to `CC(=O)N1/C(=C\c2ccc3cc(C(=O)N4CCOCC4)cc(-c4cccc5ccccc45)c3n2)C(=O)c2ccccc21` [Example 197, 1-acetyl-2-((6-(morpholine-4-carbonyl)-8-(naphthalen-1-yl)-quinolin-2-yl)-methylene)indolin-3-one], at 10 µM the inhibition in assay [1] was 35.3%. Besides, the inhibition at 3.2 µM is 65.7% in assay [6] and 35.5% in assay [5].
For `CC(=O)N1/C(=C\c2cc(CNC3CCOCC3)c3ccccc3n2)C(=O)c2ccccc21` [Example 208, (Z)-1-acetyl-2-((4-(((tetrahydro-2H-pyran-4-yl)-amino)methyl)-quinolin-2-yl)-methylene)indolin-3-one], in assay [1], 1 µM produced 46.7% inhibition. The IC50 in assay [1] was 1.3 µM. In addition, the inhibition at 3.2 µM amounted to 97% in assay [2], 95.1% in assay [4], 96.2% in assay [3] and 81.1% in assay [5].
The compound `CC(=O)N1CCc2cc(-c3cc(/C=C4/C(=O)c5ccccc5N4C(C)=O)nc4ccc(CNC5CCOCC5)cc34)ccc2C1` [Example 209, (Z)-1-acetyl-2-((4-(2-acetyl-1,2,3,4-tetrahydro-isoquinolin-6-yl)-6-(((tetrahydro-2H-pyran-4-yl)-amino)methyl)-quinolin-2-yl)-methylene)indolin-3-one] gave an inhibition at 1 µM in assay [1] of 71.2%. The inhibition at 3.2 µM in assay [2] worked out at 97.8%; in assay [4], 96.7%; in assay [3], 96.7%; in assay [5] it was 94.4%.
On to `CC(=O)N1/C(=C\c2cc(-c3cccc(-c4cnn(C)c4)c3)c3cc(CNC4CCOCC4)ccc3n2)C(=O)c2ccccc21` [Example 210, (Z)-1-acetyl-2-((4-(3-(1-methyl-1H-pyrazol-4-yl)-phenyl)-6-(((tetra-hydro-2H-pyran-4-yl)amino)meth-yl)quinolin-2-yl)-methylene)indolin-3-one], for which the inhibition at 1 µM in assay [1] came out at 66.9%. Also, the IC50 in assay [1] was 0.6 µM. In addition, the inhibition at 3.2 µM in assay [2] was determined as 97.5%; in assay [4] it was 97.3%; in assay [3], 96.2%; in assay [5], 78%.
